Read-outs that look alike come from different tables or passages of the source.
Assays:
[1] = Pharmacokinetics and biodistribution in mice after i.p. administration; format: in vivo, Swiss nude mice; set-up: AUCinf: concentration or dose not given beside the values
Description: Adult male and female Swiss Nu/Nu and Swiss Nu/+ mice, aged between 10-14 weeks and weighting 22-30 g, were purchased from Charles River Laboratories (Lyon, France) and maintained in local animal facilities under controlled conditions (12 hours light/dark cycle, at 20±2° C. and 50±5% of relative humidity), with free access to standard diet and water. All animal experiments were conducted in agreement with the international regulations of the European Union.
A solution containing CXB in PEG 400: NaCl 0.9% (pH=7.4) (2:1, V/V) was used as control. Thereafter, mice were sacrificed by decapitation at predetermined post-dosing time points. Blood samples were collected to heparinised tubes and centrifuged at 2880 g for 10 min at 4° C. Plasma supernatant was collected and frozen at −80° C. until analysis. […] Brain and liver tissues were homogenized with an H2O-acetonitrile (1:1, V/V) solution (4 mL per g of tissue) using a Thomas® Teflon pestle tissue homogenizer and centrifuged at 4 150 g for 15 min at 4° C. In parallel, spleen tissues were homogenized with 1 ml of the same solution using a high-speed stirrer (Ultra-Turrax X1020, Ystral GmbH, Dottingen, Germany) and then, centrifuged at 12 045 g for 5 min at 4° C. All supernatants were collected and stored at −80° C. until analysis using a previously validated HPLC method. […]

U87 cells = test: Resazurin cytotoxicity assay in U87 / glioma cells; format: cell-based, human; conditions: for IC50: all glioma cells, 24 hours and 72 hours
Description: In vitro toxicity studies were performed as described in Example 4. To assess the potential cytotoxicity of both loaded and unloaded NPs, the resazurin assay was conducted in HBMEC and U87 cells. The sensitivity of GB cells to free CXB and TMZ was assessed following a treatment with a drug solution in the range 7-1700 μM and 5-2500 μM, respectively.
The cytotoxicity effect of AuNRs^c(RGDfK) and HNPs/HNPs^Tf against U87 cells. Regarding cell viability, the U87 cells were cultured in DMEM/F-12 medium, supplemented with 10% (v/v) FBS, 1% (v/v) penicillin-streptomycin solution and sodium bicarbonate. U87 were maintained at 37° C. in a humidified atmosphere containing CO2 (5%). The resazurin assay was used to determine the cytotoxicity of CXB, AuNRs^c(RGDfK) and HNPs. Briefly, 2000 cells per well were seeded in a 96 well plate and incubated for 24 hours or 72 hours after the medium was replaced with increasing concentrations of CXB or AuNRs^c(RGDfK) or HNPs/HNPS^Tf. Subsequently, the medium was removed, and the cell viability determined. For this purpose, 100 μl of 10% (w/v) resazurin solution in DMEM/F 12 was added to the cells and incubated for approximately 2 hours, at 37° C. The enzymatic reduction of resazurin to resorufin was analyzed by UV/Vis spectrophotometry at 570 nm and 600 nm. Cell viability was assessed as described above.

[2] = Safety and tolerability in mice; set-up: species or system Swiss nude mice; conditions: mouse, in vivo
Description: The dose used for temozolomide was 30 mg/kg (i.p administration) and 50 mg/kg (oral administration), as the upper threshold tolerated by animals. The treatment started 21 days after U87 cell implantation.
To understand the drug effect: At 21 days post-tumor cell injection, mice were randomly divided into six groups and treated intraperitoneally for two cycles of five consecutive days. […] Similarly, to the safety evaluation test, all animals were closely observed during the immediate post injection period. Mice physical appearance (body weight and coat condition), body function (food intake), presence of loose stools, diarrhea or blood in diarrhea and behavior (handling, aggression, abnormal gait and posture and reluctance to move) were also monitored throughout the study. Pre-determined human endpoints for animal euthanasia were also established, specifically, a weight loss greater than 20% of initial body weight, a temperature drop (<35° C.), and a tumor size higher than 50 mm^3.

[3] = tested on: orthotopic U87 human GB tumor; test: In vivo antitumor efficacy in orthotopic U87 glioblastoma model; set-up: species or system human tumor in Swiss nude mice
Description: Regarding orthotopic U87 human GB tumor model, before the surgical procedure, fourteen nude mice were weighted, given buprenorphine (0.1 mg/Kg) intraperitoneally and placed on a stereotactic frame. To maintain anesthesia and sedation, the mice were anesthetized for 30 min with 4% isoflurane gas, mixed with medical oxygen at a rate of 1 L/min. Vital signs such as respiratory frequency and body temperature were monitored continuously. After the identification of the injection site, at the Cartesian coordinates (x, y, z)=(2.1, 0.5, −3) in relation to bregma, approximately 36 000 U87 cells were injected in the striatum of the frontal cortex of the right hemisphere of the brain, using a Hamilton syringe. In every mouse, the presence, location and volume of the tumors were assessed by Magnetic Resonance Imaging (MRI) weekly. MRI was performed using a 9.4T Bruker BioSpec 94/20USR system (Bruker, Germany) after anesthetizing mice with isoflurane (1 L/min, induction: 4% isoflurane; maintenance: 2% isoflurane). Vital signs, in particular, respiratory frequency and body temperature, were monitored continuously. For structural analysis, T2-weighted images were acquired in sagittal, coronal and axial planes, using a rapid acquisition with relaxation enhancement sequence (T2 Turbo RARE). Tumor images were manually segmented in the 3D Slicer software for 3D reconstruction, in order to calculate tumor volume.
Similarly, to the safety evaluation test, all animals were closely observed during the immediate post injection period. Mice physical appearance (body weight and coat condition), body function (food intake), presence of loose stools, diarrhea or blood in diarrhea and behavior (handling, aggression, abnormal gait and posture and reluctance to move) were also monitored throughout the study. Pre-determined human endpoints for animal euthanasia were also established, specifically, a weight loss greater than 20% of initial body weight, a temperature drop (<35° C.), and a tumor size higher than 50 mm^3. […]
The tumor growth delayed (TGD), which concerns the evaluation of tumor treatment modalities, was calculated according to
where, Dtreatment and Dcontrol correspond to the average doubling times of the treated and control tumors, respectively.
The tumor growth inhibition (TGI), which measures the tumor size between treated and control groups at specific time points was calculated according to
[formula] • where ΔT (=T−T0) represents the change in tumor size (volume) for the treated animals, while ΔC(=C−C0) represents the change in tumor size (volume) for the control animals. By comparing these values, the degree of tumor growth inhibition can be determined.

[4] = Serum biomarkers for toxicity evaluation in glioblastoma-bearing mice; format: in vivo, Swiss nude mice; conditions: free drug in solution
Description: After reaching the endpoint, animals were euthanized. Whole blood samples were collected from mice immediately to heparinized tubes. The supernatant (serum) of blood obtained after centrifugation (2880×g for 10 min at 4° C.) was used to determine the levels of physiological biomarkers such as aspartate aminotransferase (AST), alanine aminotransferase (ALT), alkaline phosphatase (ALP), gamma glutamyl transpeptidase (GGT), creatinine kinase (CK), and urea (U) to investigate the effects of drug, nanoparticles and photothermal treatment.

glioblastoma = conditions: cited from earlier work
[5] = celecoxib, i.p. mice, plasma, 20 mg/kg
[6] = mouse, ip, 20 mg/kg, celecoxib, i.p. mice, brain
[7] = mouse, ip, 20 mg/kg, celecoxib, i.p. mice, kidney
[8] = mouse, ip, 20 mg/kg, celecoxib, i.p. mice, liver
[9] = mouse, ip, 20 mg/kg, celecoxib, i.p. mice, plasma
[10] = mouse, ip, 20 mg/kg, celecoxib, i.p. mice, spleen
[11] = i.p., no irradiation (TMZ 30 mg/kg, CXB 5 mg/kg, nanoparticles 20 mg/kg)
[12] = i.p., no irradiation (TMZ 30 mg/kg, CXB 5 mg/kg, nanoparticles 20 mg/kg), listed as temozolomide
[13] = oral, 50 mg/kg, listed as temozolomide

Cc1ccc(-c2cc(C(F)(F)F)nn2-c2ccc(S(N)(=O)=O)cc2)cc1 [CXB, celecoxib]
AUC0-last ([1]; celecoxib, i.p. mice, brain): 36.7 µg·h/g | AUCextrap ([1]; celecoxib, i.p. mice, brain): 7.08% | AUCinf ([1]; celecoxib, i.p. mice, brain): 39.5 µg·h/g | AUC0-last ([1]; celecoxib, i.p. mice, kidney): 35.3 µg·h/g | AUCextrap ([1]; celecoxib, i.p. mice, kidney): 16.3% | AUCinf ([1]; celecoxib, i.p. mice, kidney): 42.2 µg·h/g | AUC0-last ([1]; celecoxib, i.p. mice, liver): 27.7 µg·h/g | AUCextrap ([1]; celecoxib, i.p. mice, liver): 30.4% | AUCinf ([1]; celecoxib, i.p. mice, liver): 39.8 µg·h/g | AUCextrap ([1]; celecoxib, i.p. mice, plasma): 13.0% | AUC0-last [1, 5]: 28.1 µg·h/mL | Cmax [1, 5]: 9.1 µg/mL | AUC0-last ([1]; celecoxib, i.p. mice, spleen): 73.2 µg·h/g | AUCextrap ([1]; celecoxib, i.p. mice, spleen): 42.0% | AUCinf ([1]; celecoxib, i.p. mice, spleen): 126.2 µg·h/g | Cmax ([1]; mouse, brain, ip, 20 mg/kg, celecoxib, i.p. mice, brain, read-out: Cmax): 20600 ng/g | AUC(0-t) ([1]; mouse, ip, 20 mg/kg, plasma): 28.1 µg·h/mL | MRT [1, 6]: 2 h | Tmax [1, 6]: 1 h | half-life [1, 6]: 1.4 h | MRT [1, 7]: 3.05 h | Tmax [1, 7]: 2 h | half-life [1, 7]: 2 h | MRT [1, 8]: 4.6 h | Tmax [1, 8]: 0.5 h | half-life [1, 8]: 2.8 h | AUC(0-inf) [1, 9]: 32.3 µg·h/mL | MRT [1, 9]: 2.9 h | Tmax [1, 9]: 1 h | half-life [1, 9]: 1.9 h | MRT [1, 10]: 6.47 h | Tmax [1, 10]: 1 h | half-life [1, 10]: 4.07 h | Cmax ([1]; mouse, kidney, ip, 20 mg/kg, celecoxib, i.p. mice, kidney, read-out: Cmax): 15600 ng/g | Cmax ([1]; mouse, liver, ip, 20 mg/kg, celecoxib, i.p. mice, liver, read-out: Cmax): 10600 ng/g | Cmax ([1]; mouse, plasma, ip, 20 mg/kg, celecoxib, i.p. mice, plasma, read-out: Cmax): 9.09 µg/mL | Cmax ([1]; mouse, spleen, ip, 20 mg/kg, celecoxib, i.p. mice, spleen, read-out: Cmax): 22400 ng/g | effect on cellular proliferation (U87 cells; free CXB, after 24 hours and 72 hours): able to impair cellular proliferation | IC50 (U87 cells; free CXB): < 400 µM | MTD ([2]; ip, celecoxib in solution, i.p., read-out: dose above which toxicity was exhibited): > 5 mg/kg | mean survival time (MST) ([3]; i.p., no irradiation (CXB 5 mg/kg, nanoparticles 20 mg/kg)): 48 days | % Tumor Growth Delay [3, 11]: 15 ± 5% | % Tumor Growth Inhibition [3, 11]: 13 ± 6% | Median survival [3, 11]: 48 days | Survivals at 56 days [3, 11]: 1/6 | Survivals at 91 days [3, 11]: 0/6 | inhibition of growth of GB cells in vivo ([3]; i.p., in words): the effect was not significant | CK increase over saline group [4]: 1.17 fold

Cn1nnc2c(C(N)=O)ncn2c1=O [TMZ, temozolomide]
median OS (glioblastoma; combination with radiotherapy vs. 12.1 months radiotherapy alone, P<0.001): 14.6 months | median survival time in patients (glioblastoma; comparative studies of several chemotherapeutic agents, in words): highest median survival time in patients | IC50 (U87 cells; Homo sapiens, U-87 MG, free TMZ): 800 µM | MTD ([2]; ip, i.p. administration, read-out: upper threshold dose tolerated by animals): 30 mg/kg | MTD ([2]; oral administration, read-out: upper threshold dose tolerated by animals): 50 mg/kg | animals that survived and prevented tumor recurrence ([3]; i.p. 30 mg/kg, out of 6 animals, 91 days): 4 | % Tumor Growth Delay [3, 11]: 75 ± 21% | % Tumor Growth Inhibition [3, 11]: 66 ± 33% | Median survival [3, 11]: 91 days | Survivals at 56 days [3, 11]: 6/6 | Survivals at 91 days [3, 11]: 4/6 | % Tumor Growth Delay [3, 12]: 75% | % Tumor Growth Inhibition [3, 12]: 66% | % Tumor Growth Delay ([3]; oral, 50 mg/kg): 54 ± 11% | % Tumor Growth Inhibition ([3]; oral, 50 mg/kg): 42 ± 14% | Median survival ([3]; oral, 50 mg/kg): 70 days | Survivals at 56 days ([3]; oral, 50 mg/kg): 1/6 | Survivals at 91 days ([3]; oral, 50 mg/kg): 1/6 | animals that survived without tumor recurrence ([3]; oral, 50 mg/kg): only one animal survived | mean survival time (MST) ([3]; oral, 50 mg/kg): 70 days | % Tumor Growth Delay [3, 13]: 54% | % Tumor Growth Inhibition [3, 13]: 42% | CK increase over saline group [4]: 1.32 fold
